Columns and labels:
[1] = test system: HCT-116; assay: Induction of apoptosis in human HCT116 cells assessed as viable cells at 50 uM incubated for 24 hrs in presence of irradiation by annexin V FITC and propidium iodide based flow cytometry (reference value: 94.8 %); type: functional; details: HCT-116, light or radiation study, read-out: Activity
[2] = target: T1, DNA topoisomerase 1 (Homo sapiens) (UniProt P11387); assay: Inhibition of recombinant human topoisomerase 1 assessed as supercoiled pBR322 DNA at 25 uM incubated for 1 hr by ethidium bromide staining based agarose gel electrophoresis method relative to control; parameters: scale not given: the % may be the effect or the level left
T1 sequence (whole entry): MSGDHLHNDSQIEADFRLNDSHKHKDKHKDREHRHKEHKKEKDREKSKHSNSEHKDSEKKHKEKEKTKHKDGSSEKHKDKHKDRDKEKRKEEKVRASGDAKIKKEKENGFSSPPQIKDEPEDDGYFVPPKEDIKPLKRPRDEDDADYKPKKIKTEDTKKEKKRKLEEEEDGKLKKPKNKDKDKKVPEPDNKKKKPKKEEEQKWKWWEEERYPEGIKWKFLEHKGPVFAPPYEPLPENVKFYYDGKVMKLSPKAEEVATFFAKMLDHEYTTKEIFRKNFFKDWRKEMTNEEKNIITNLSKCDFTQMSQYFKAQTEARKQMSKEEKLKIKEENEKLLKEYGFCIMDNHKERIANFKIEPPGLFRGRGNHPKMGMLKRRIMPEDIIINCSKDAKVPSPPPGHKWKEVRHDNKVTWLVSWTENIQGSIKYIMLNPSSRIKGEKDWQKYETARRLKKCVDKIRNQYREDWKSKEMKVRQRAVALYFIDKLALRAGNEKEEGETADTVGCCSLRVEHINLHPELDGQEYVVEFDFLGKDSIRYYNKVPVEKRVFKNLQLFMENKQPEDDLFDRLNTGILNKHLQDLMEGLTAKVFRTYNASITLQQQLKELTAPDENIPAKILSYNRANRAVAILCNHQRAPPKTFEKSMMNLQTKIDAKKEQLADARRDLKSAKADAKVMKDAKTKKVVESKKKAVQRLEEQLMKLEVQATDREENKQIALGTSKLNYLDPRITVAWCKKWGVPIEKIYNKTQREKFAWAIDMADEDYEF

- Activity [2]: 66%
SMILES: CC1=CC(/C=C/c2ccc(OCCCc3ccc[n+](C)c3)c(OCCCc3ccc[n+](C)c3)c2)=[N+]2C1=C(c1ccc(OCCCc3ccc[n+](C)c3)c(OCCCc3ccc[n+](C)c3)c1)c1c(C)cc(/C=C/c3ccc(OCCCc4ccc[n+](C)c4)c(OCCCc4ccc[n+](C)c4)c3)n1[B-]2(F)F.[I-].[I-].[I-].[I-].[I-].[I-]
- viability at 50 µM [1]: 93.7%
